Results taken from patent publication US12479847B2 (DANA-FARBER CANCER INSTITUTE, INC., priority 2019, dated 2025).

target: human LRRK2 kinase (Homo sapiens, UniProt Q5S007); details: LRRK2, ADP-Glo, ATP 10 μM, 60 minutes at 25° C.
Sequence (Q5S007 whole entry): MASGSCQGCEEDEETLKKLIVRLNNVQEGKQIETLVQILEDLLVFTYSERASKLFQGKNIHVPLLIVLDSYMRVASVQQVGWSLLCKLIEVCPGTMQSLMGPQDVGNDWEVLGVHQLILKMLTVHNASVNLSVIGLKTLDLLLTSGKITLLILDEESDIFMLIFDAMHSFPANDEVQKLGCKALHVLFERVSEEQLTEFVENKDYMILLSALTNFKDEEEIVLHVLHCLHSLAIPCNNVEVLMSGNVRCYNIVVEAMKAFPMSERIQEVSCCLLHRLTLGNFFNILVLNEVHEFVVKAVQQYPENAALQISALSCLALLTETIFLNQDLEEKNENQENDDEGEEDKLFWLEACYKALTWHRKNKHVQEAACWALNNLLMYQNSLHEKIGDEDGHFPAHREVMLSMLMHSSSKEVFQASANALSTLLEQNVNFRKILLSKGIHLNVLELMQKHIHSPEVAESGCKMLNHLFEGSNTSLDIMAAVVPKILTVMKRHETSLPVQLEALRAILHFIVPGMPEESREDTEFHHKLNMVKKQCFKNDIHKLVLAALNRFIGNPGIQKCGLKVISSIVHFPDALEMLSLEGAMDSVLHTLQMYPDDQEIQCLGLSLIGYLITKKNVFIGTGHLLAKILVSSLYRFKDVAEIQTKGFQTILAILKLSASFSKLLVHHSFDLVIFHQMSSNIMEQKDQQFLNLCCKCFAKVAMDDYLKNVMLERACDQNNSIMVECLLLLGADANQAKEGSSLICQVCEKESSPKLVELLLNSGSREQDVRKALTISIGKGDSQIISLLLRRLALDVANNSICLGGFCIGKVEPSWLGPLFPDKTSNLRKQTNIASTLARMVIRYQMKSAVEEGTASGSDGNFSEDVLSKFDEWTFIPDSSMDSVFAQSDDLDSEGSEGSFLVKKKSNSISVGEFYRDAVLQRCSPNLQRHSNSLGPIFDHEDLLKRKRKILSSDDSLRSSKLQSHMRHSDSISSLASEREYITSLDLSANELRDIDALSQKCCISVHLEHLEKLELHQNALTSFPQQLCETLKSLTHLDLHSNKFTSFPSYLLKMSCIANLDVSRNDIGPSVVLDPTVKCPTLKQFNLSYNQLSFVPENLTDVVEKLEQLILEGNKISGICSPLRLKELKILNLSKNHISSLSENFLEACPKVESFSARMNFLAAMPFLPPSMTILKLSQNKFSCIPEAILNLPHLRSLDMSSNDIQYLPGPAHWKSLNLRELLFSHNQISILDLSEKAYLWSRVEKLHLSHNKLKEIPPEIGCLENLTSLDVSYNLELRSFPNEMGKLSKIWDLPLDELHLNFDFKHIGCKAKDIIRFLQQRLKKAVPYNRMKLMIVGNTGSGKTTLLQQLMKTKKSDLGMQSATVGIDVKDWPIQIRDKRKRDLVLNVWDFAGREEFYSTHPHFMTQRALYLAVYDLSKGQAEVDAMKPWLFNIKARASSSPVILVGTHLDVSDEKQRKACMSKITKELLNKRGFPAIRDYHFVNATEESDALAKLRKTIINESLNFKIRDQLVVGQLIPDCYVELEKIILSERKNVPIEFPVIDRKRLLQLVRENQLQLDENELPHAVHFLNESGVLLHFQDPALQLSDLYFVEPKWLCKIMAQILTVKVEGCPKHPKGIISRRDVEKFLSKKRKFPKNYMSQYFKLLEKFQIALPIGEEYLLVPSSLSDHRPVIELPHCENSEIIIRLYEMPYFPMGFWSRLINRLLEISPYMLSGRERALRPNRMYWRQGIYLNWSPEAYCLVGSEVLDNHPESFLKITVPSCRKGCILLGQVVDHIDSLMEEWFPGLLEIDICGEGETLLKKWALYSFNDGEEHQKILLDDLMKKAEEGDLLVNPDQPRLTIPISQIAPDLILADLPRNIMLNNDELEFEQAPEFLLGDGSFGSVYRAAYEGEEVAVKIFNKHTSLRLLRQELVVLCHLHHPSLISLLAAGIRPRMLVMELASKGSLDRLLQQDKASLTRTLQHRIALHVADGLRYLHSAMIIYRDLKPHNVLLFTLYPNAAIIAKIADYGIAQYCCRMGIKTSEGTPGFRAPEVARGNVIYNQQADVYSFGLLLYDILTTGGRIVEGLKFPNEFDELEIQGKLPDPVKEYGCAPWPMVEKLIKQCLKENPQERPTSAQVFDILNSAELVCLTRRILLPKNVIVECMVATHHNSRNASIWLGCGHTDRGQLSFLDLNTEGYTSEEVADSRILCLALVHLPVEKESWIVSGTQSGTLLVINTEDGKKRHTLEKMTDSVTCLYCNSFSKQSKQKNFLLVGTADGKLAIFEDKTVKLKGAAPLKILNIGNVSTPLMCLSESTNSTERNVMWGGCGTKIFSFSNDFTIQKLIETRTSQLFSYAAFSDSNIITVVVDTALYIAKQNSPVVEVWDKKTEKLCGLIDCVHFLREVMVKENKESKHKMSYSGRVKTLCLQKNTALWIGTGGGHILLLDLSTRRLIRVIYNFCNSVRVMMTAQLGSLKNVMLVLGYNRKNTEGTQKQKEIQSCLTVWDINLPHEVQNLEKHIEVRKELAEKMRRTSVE
Method: Assay kits from Promega™ Corporation were used according to instructions and adapted as outlined herein. […] The kinase reaction was performed with kinase reaction buffer (40 mM Tris base pH 7.4, 20 mM MgCl2, 0.5 mM dithiothreitol), 0.1 mg/ml bovine serum albumin, distilled H2O). […] In brief, the kinase reactions were started by addition of ATP to the kinase reaction mixture. The resulting mixture was incubated for 60 minutes at 25° C., and then stopped by adding 5 μl of ADP-Glo™ reagent. After incubation at room temperature in the dark for 40 minutes, 10 μl of kinase detection reagent was added per well, and the mixture was incubated for 10 minutes. […] Positive and negative controls were performed in 0.5% DMSO in the presence and absence of LRRK2 kinases. Curve fitting and data presentations were performed using GraphPad Prism version 5.0 (GraphPad Software, Inc.).

First: CCC(C)Nc1nc(Nc2ccc(S(=O)(=O)N3CCC(N4CCOCC4)CC3)cc2OC)nc2[nH]cc(Cl)c12 (stereo in doubt) [Compound 52, (S)—N4-(sec-butyl)-5-chloro-N2-(2-methoxy-4-((4-morpholinopiperidin-1-yl)sulfonyl)phenyl)-7H-pyrrolo[2,3-d]pyrimidine-2,4-diamine]
Second: CCNc1nc(Nc2ccc(S(=O)(=O)N3CCC(N4CCOCC4)CC3)cc2OC)nc2[nH]cc(Cl)c12 [Compound 15, 5-chloro-N4-ethyl-N2-(2-methoxy-4-((4-morpholinopiperidin-1-yl)sulfonyl)phenyl)-7H-pyrrolo[2,3-d]pyrimidine-2,4-diamine]
The IC50 of the first is higher: 0.01 to 0.1 µM for the first, less than 0.01 µM for the second. The second is the more potent here.

Compared with `CCC(C)Nc1nc(Nc2ccc(S(C)(=O)=O)cc2OC)nc2[nH]cc(Cl)c12` (stereo in doubt) [Compound 53, (S)—N4-(sec-butyl)-5-chloro-N2-(2-methoxy-4-(methylsulfonyl)phenyl)-7H-pyrrolo[2,3-d]pyrimidine-2,4-diamine], `CCNc1nc(Nc2ccc(S(C)(=O)=O)cc2OC)nc2[nH]cc(Cl)c12` [Compound 16, 5-chloro-N4-ethyl-N2-(2-methoxy-4-(methylsulfonyl)phenyl)-7H-pyrrolo[2,3-d]pyrimidine-2,4-diamine] is lower in IC50: 0.1 to 1 µM for the first, 0.01 to 0.1 µM for the second. The second is the more potent here.

`CCNc1nc(Nc2ccc(C(=O)N3CCC(N4CCOCC4)CC3)c3c2OCCO3)nc2[nH]cc(Cl)c12` [Compound 1, (8-((5-chloro-4-(ethylamino)-7H-pyrrolo[2,3-d]pyrimidin-2-yl)amino)-2,3-dihydrobenzo[b][1,4]dioxin-5-yl)(4-morpholinopiperidin-1-yl)methanone] and `CNc1nc(Nc2ccc(C(=O)N3CCC(N4CCOCC4)CC3)c3c2OCCO3)nc2[nH]cc(Cl)c12` [Compound 10, (8-((5-chloro-4-(methylamino)-7H-pyrrolo[2,3-d]pyrimidin-2-yl)amino)-2,3-dihydrobenzo[b][1,4]dioxin-5-yl)(4-morpholinopiperidin-1-yl)methanone] cannot be ordered by IC50: less than 0.01 µM for the first, less than 0.01 µM for the second.

`O=C(c1ccc(Nc2nc(NC3CC3)c3c(Cl)c[nH]c3n2)c2c1OCCO2)N1CCC(N2CCOCC2)CC1` [Compound 3, (8-((5-chloro-4-(cyclopropylamino)-7H-pyrrolo[2,3-d]pyrimidin-2-yl)amino)-2,3-dihydrobenzo[b][1,4]dioxin-5-yl)(4-morpholinopiperidin-1-yl)methanone] and `O=C(c1ccc(Nc2nc(NC3CCC3)c3c(Cl)c[nH]c3n2)c2c1OCCO2)N1CCC(N2CCOCC2)CC1` [Compound 4, (8-((5-chloro-4-(cyclobutylamino)-7H-pyrrolo[2,3-d]pyrimidin-2-yl)amino)-2,3-dihydrobenzo[b][1,4]dioxin-5-yl)(4-morpholinopiperidin-1-yl)methanone] cannot be ordered by IC50: less than 0.01 µM for the first, less than 0.01 µM for the second.

`COCCNc1nc(Nc2ccc(C(=O)N3CCC(N4CCOCC4)CC3)c3c2OCCO3)nc2[nH]cc(Cl)c12` [Compound 5, (8-((5-chloro-4-((2-methoxyethyl)amino)-7H-pyrrolo[2,3-d]pyrimidin-2-yl)amino)-2,3-dihydrobenzo[b][1,4]dioxin-5-yl)(4-morpholinopiperidin-1-yl)methanone] and `COCCNc1nc(Nc2ccc(C(=O)N3CCOCC3)c3c2OCCO3)nc2[nH]cc(Cl)c12` [Compound 9, (8-((5-chloro-4-((2-methoxyethyl)amino)-7H-pyrrolo[2,3-d]pyrimidin-2-yl)amino)-2,3-dihydrobenzo[b][1,4]dioxin-5-yl)(morpholino)methanone] cannot be ordered by IC50: less than 0.01 µM for the first, less than 0.01 µM for the second.

First: CCNc1nc(Nc2ccc(S(=O)(=O)N3CCOCC3)cc2OC)nc2[nH]cc(Cl)c12 [Compound 6, 5-chloro-N4-ethyl-N2-(2-methoxy-4-(morpholinosulfonyl)phenyl)-7H-pyrrolo[2,3-d]pyrimidine-2,4-diamine]
Second: CCCNc1nc(Nc2ccc(S(=O)(=O)N3CCOCC3)cc2OC)nc2[nH]cc(Cl)c12 [Compound 18, 5-chloro-N2-(2-methoxy-4-(morpholinosulfonyl)phenyl)-N4-propyl-7H-pyrrolo[2,3-d]pyrimidine-2,4-diamine]
The IC50 of the first is higher: greater than 1 µM for the first, 0.1 to 1 µM for the second.

First: COc1cc(S(=O)(=O)N2CCOCC2)ccc1Nc1nc(NC2CCC2)c2c(Cl)c[nH]c2n1 [Compound 7, 5-chloro-N4-cyclobutyl-N2-(2-methoxy-4-(morpholinosulfonyl)phenyl)-7H-pyrrolo[2,3-d]pyrimidine-2,4-diamine]
Second: COc1cc(S(=O)(=O)N2CCOCC2)ccc1Nc1nc(NC2CC2)c2c(Cl)c[nH]c2n1 [Compound 24, 5-chloro-N4-cyclopropyl-N2-(2-methoxy-4-(morpholinosulfonyl)phenyl)-7H-pyrrolo[2,3-d]pyrimidine-2,4-diamine]
The IC50 of the first is higher: 0.1 to 1 µM for the first, 0.01 to 0.1 µM for the second. The second is the more potent here.

First: CCCNc1nc(Nc2ccc(S(C)(=O)=O)cc2OC)nc2[nH]cc(Cl)c12 [Compound 8, 5-chloro-N2-(2-methoxy-4-(methylsulfonyl)phenyl)-N4-propyl-7H-pyrrolo[2,3-d]pyrimidine-2,4-diamine]
Second: COCCNc1nc(Nc2ccc(S(C)(=O)=O)cc2OC)nc2[nH]cc(Cl)c12 [Compound 23, 5-chloro-N2-(2-methoxy-4-(methylsulfonyl)phenyl)-N4-(2-methoxyethyl)-7H-pyrrolo[2,3-d]pyrimidine-2,4-diamine]
The IC50 of the first is higher: 0.01 to 0.1 µM for the first, less than 0.01 µM for the second. The second is the more potent here.

First: CNc1nc(Nc2ccc(S(=O)(=O)N3CCOCC3)cc2OC)nc2[nH]cc(Cl)c12 [Compound 11, 5-chloro-N2-(2-methoxy-4-(morpholinosulfonyl)phenyl)-N4-methyl-7H-pyrrolo[2,3-d]pyrimidine-2,4-diamine]
Second: COc1cc(S(=O)(=O)N2CCOCC2)ccc1Nc1nc(NCC(C)C)c2c(Cl)c[nH]c2n1 [Compound 31, 5-chloro-N4-isobutyl-N2-(2-methoxy-4-(morpholinosulfonyl)phenyl)-7H-pyrrolo[2,3-d]pyrimidine-2,4-diamine]
The IC50 of the first is lower: less than 0.01 µM for the first, 0.1 to 1 µM for the second.

First: CNc1nc(Nc2ccc(S(C)(=O)=O)cc2OC)nc2[nH]cc(Cl)c12 [Compound 13, 5-chloro-N2-(2-methoxy-4-(methylsulfonyl)phenyl)-N4-methyl-7H-pyrrolo[2,3-d]pyrimidine-2,4-diamine]
Second: COc1cc(S(C)(=O)=O)ccc1Nc1nc(NCC(C)C)c2c(Cl)c[nH]c2n1 [Compound 32, 5-chloro-N4-isobutyl-N2-(2-methoxy-4-(methylsulfonyl)phenyl)-7H-pyrrolo[2,3-d]pyrimidine-2,4-diamine]
The IC50 of the first is lower: less than 0.01 µM for the first, 0.1 to 1 µM for the second.

`CNc1nc(Nc2ccc(C(=O)N3CCOCC3)c3c2OCCO3)nc2[nH]cc(Cl)c12` [Compound 14, (8-((5-chloro-4-(methylamino)-7H-pyrrolo[2,3-d]pyrimidin-2-yl)amino)-2,3-dihydrobenzo[b][1,4]dioxin-5-yl)(morpholino)methanone] and `CCNc1nc(Nc2ccc(C(=O)N3CCOCC3)c3c2OCCO3)nc2[nH]cc(Cl)c12` [Compound 17, (8-((5-chloro-4-(ethylamino)-7H-pyrrolo[2,3-d]pyrimidin-2-yl)amino)-2,3-dihydrobenzo[b][1,4]dioxin-5-yl)(morpholino)methanone] cannot be ordered by IC50: less than 0.01 µM for the first, less than 0.01 µM for the second.

First: CCCNc1nc(Nc2ccc(C(=O)N3CCOCC3)c3c2OCCO3)nc2[nH]cc(Cl)c12 [Compound 20, (8-((5-chloro-4-(propylamino)-7H-pyrrolo[2,3-d]pyrimidin-2-yl)amino)-2,3-dihydrobenzo[b][1,4]dioxin-5-yl)(morpholino)methanone]
Second: O=C(c1ccc(Nc2nc(NC3CC3)c3c(Cl)c[nH]c3n2)c2c1OCCO2)N1CCOCC1 [Compound 27, (8-((5-chloro-4-(cyclopropylamino)-7H-pyrrolo[2,3-d]pyrimidin-2-yl)amino)-2,3-dihydrobenzo[b][1,4]dioxin-5-yl)(morpholino)methanone]
The IC50 of the first is higher: 0.01 to 0.1 µM for the first, less than 0.01 µM for the second.

`COCCNc1nc(Nc2ccc(S(=O)(=O)N3CCOCC3)cc2OC)nc2[nH]cc(Cl)c12` [Compound 21, 5-chloro-N2-(2-methoxy-4-(morpholinosulfonyl)phenyl)-N4-(2-methoxyethyl)-7H-pyrrolo[2,3-d]pyrimidine-2,4-diamine] and `COCCNc1nc(Nc2ccc(S(=O)(=O)N3CCC(N4CCOCC4)CC3)cc2OC)nc2[nH]cc(Cl)c12` [Compound 22, 5-chloro-N2-(2-methoxy-4-((4-morpholinopiperidin-1-yl)sulfonyl)phenyl)-N4-(2-methoxyethyl)-7H-pyrrolo[2,3-d]pyrimidine-2,4-diamine] cannot be ordered by IC50: less than 0.01 µM for the first, less than 0.01 µM for the second.

Compared with `COc1cc(S(=O)(=O)N2CCC(N3CCOCC3)CC2)ccc1Nc1nc(NC2CC2)c2c(Cl)c[nH]c2n1` [Compound 25, 5-chloro-N4-cyclopropyl-N2-(2-methoxy-4-((4-morpholinopiperidin-1-yl)sulfonyl)phenyl)-7H-pyrrolo[2,3-d]pyrimidine-2,4-diamine], `COc1cc(S(=O)(=O)N2CCC(N3CCOCC3)CC2)ccc1Nc1nc(NC2CCC2)c2c(Cl)c[nH]c2n1` [Compound 28, 5-chloro-N4-cyclobutyl-N2-(2-methoxy-4-((4-morpholinopiperidin-1-yl)sulfonyl)phenyl)-7H-pyrrolo[2,3-d]pyrimidine-2,4-diamine] is higher in IC50: less than 0.01 µM for the first, 0.1 to 1 µM for the second.

Compared with `COc1cc(S(C)(=O)=O)ccc1Nc1nc(NC2CC2)c2c(Cl)c[nH]c2n1` [Compound 26, 5-chloro-N4-cyclopropyl-N2-(2-methoxy-4-(methylsulfonyl)phenyl)-7H-pyrrolo[2,3-d]pyrimidine-2,4-diamine], `COc1cc(S(C)(=O)=O)ccc1Nc1nc(NC2CCC2)c2c(Cl)c[nH]c2n1` [Compound 29, 5-chloro-N4-cyclobutyl-N2-(2-methoxy-4-(methylsulfonyl)phenyl)-7H-pyrrolo[2,3-d]pyrimidine-2,4-diamine] is higher in IC50: less than 0.01 µM for the first, 0.01 to 0.1 µM for the second. The first is the more potent here.

`O=C(c1ccc(Nc2nc(NC3CCC3)c3c(Cl)c[nH]c3n2)c2c1OCCO2)N1CCOCC1` [Compound 30, (8-((5-chloro-4-(cyclobutylamino)-7H-pyrrolo[2,3-d]pyrimidin-2-yl)amino)-2,3-dihydrobenzo[b][1,4]dioxin-5-yl)(morpholino)methanone] gave an IC50 of less than 0.01 µM.

same assay, conditions: read-out: LRRK2; ADP-Glo, ATP 10 μM, 60 minutes at 25° C.

`CCC(C)Nc1nc(Nc2ccc(S(=O)(=O)N3CCOCC3)cc2OC)nc2[nH]cc(Cl)c12` (stereo in doubt) [Compound 51, (S)—N4-(sec-butyl)-5-chloro-N2-(2-methoxy-4-(morpholinosulfonyl)phenyl)-7H-pyrrolo[2,3-d]pyrimidine-2,4-diamine] showed an IC50 of 0.1 to 1 µM.
